Experimental data published in PMC5431432, “Low-basicity 5-HT7 Receptor Agonists Synthesized Using the van Leusen Multicomponent Protocol” (Scientific Reports, 2017).
Read-outs that look alike come from different tables or passages of the source.

Columns and labels:
[1] = target: T1, human serotonin 5-HT1AR (Homo sapiens, UniProt P08908); experiment: Radioligand binding, [3H]-8-OH-DPAT displacement
T1 sequence (P08908 1-422): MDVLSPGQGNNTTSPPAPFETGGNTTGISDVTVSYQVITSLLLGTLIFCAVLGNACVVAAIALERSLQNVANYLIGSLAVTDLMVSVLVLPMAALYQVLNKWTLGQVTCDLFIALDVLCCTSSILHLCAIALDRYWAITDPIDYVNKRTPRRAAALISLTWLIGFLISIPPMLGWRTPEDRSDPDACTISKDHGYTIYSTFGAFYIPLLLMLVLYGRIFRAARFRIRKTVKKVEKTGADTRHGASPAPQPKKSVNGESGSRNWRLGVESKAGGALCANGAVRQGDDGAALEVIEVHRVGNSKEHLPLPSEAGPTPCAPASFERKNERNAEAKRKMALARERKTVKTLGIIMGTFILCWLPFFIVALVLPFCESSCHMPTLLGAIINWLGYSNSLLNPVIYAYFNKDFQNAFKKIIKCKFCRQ

[2] = target: T2, human serotonin 5-HT2A receptor (Homo sapiens, UniProt P28223); experiment: Radioligand binding, [3H]-ketanserin displacement
T2 construct: host or cells: CHO-K1

[3] = target: human serotonin 5-HT6R (Homo sapiens, UniProt P50406); experiment: Radioligand binding, [3H]-LSD displacement
[4] = target: human serotonin 5-HT7bR (Homo sapiens, UniProt P34969); experiment: Radioligand binding, [3H]-5-CT displacement
[5] = target: human dopamine D2LR (Homo sapiens, UniProt P14416); experiment: Radioligand binding, [3H]-raclopride displacement
[6] = target: human 5-HT7 receptor (Homo sapiens, UniProt P34969); experiment: Functional assay, cAMP production (TR-FRET) in HEK293 cells overexpressing 5-HT7R; type: cell-based; details: for EC50: hydrochloride salts
[7] = Fig. 2, read-out: pKi 5-HT1A (converted)
[8] = Fig. 2, read-out: pKi 5-HT2A (converted)
[9] = Fig. 2, read-out: pKi 5-HT6 (converted)
[10] = Fig. 2, read-out: pKi D2 (converted)
[11] = Fig. 2, read-out: pKi 5-HT7 (converted)

human serotonin 5-HT6R, sequence (P50406 whole entry): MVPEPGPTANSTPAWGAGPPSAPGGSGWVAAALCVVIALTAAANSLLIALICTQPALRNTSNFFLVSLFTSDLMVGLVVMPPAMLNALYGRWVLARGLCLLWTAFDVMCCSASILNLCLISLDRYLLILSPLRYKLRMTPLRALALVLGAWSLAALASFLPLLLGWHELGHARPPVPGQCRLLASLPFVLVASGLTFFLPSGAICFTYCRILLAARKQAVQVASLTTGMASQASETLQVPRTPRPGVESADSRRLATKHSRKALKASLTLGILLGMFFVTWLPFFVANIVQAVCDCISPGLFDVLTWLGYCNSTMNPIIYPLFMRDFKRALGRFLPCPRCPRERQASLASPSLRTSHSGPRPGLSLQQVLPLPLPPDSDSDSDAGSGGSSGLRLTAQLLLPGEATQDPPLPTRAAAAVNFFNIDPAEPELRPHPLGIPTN
T2 sequence (P28223 whole entry): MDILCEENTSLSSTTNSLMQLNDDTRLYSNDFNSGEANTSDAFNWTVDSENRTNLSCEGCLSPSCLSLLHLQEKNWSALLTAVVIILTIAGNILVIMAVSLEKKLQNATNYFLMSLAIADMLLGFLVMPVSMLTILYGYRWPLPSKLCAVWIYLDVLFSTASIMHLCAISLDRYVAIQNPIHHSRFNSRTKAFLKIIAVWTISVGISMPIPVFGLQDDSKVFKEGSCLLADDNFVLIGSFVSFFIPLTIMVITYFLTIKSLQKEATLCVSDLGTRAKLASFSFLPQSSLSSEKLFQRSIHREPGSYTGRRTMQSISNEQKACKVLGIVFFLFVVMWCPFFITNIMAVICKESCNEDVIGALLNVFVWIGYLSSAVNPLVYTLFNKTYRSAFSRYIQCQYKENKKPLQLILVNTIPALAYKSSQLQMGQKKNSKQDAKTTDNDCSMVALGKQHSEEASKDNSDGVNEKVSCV
human 5-HT7 receptor, sequence (P34969 1-432 limits assumed): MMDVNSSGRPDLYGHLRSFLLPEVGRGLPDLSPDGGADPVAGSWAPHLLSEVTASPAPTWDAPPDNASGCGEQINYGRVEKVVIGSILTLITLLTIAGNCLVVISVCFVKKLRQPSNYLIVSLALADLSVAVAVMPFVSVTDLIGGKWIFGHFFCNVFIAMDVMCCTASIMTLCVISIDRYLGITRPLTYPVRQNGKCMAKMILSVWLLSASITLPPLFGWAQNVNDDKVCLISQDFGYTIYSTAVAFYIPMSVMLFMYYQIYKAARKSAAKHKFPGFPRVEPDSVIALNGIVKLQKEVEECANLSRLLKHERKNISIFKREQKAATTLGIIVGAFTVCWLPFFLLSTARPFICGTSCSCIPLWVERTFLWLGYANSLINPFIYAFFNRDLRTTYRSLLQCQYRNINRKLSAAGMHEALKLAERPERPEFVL
human serotonin 5-HT7bR, sequence (P34969 1-432 limits assumed): as above
human dopamine D2LR, sequence (P14416 whole entry): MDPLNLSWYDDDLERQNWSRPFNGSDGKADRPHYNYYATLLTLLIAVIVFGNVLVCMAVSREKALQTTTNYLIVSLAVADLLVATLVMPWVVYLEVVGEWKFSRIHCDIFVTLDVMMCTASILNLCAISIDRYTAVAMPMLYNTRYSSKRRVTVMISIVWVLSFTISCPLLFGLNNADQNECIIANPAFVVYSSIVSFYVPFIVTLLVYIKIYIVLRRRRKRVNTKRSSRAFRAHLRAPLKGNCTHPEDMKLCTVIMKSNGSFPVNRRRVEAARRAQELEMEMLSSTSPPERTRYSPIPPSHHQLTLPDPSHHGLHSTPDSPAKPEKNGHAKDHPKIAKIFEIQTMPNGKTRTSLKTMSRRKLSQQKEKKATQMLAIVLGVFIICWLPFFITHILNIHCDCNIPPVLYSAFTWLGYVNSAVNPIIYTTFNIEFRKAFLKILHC

| SMILES | Ki [1, 7] [µM] | Ki [2, 8] [µM] | Ki [3, 9] [µM] | Ki [5, 10] [µM] | Ki [4, 11] [nM] | further results |
| --- | --- | --- | --- | --- | --- | --- |
| Cn1cc(CCN)c2ccccc21 [1-methyltryptamine, reference compound] |  |  |  |  |  | Ki [1]: 2.39 µM; Ki [2]: 6.59 µM; Ki [3]: 3.62 µM; Ki [4]: 4830 nM; Ki [5]: 6.54 µM |
| Cn1cncc1-c1c[nH]c2ccccc12 [1a] | 4.47 | 6.92 | 3.39 | 6.92 |  | selectivity over 5-HT1AR [4]: > 11 fold; Ki ([4]; read-out: Ki 5-HT7): 385 nM; melting point: 88 to 90 °C |
| COc1ccc2[nH]cc(-c3cncn3C)c2c1 [1b] | 0.851 | 3.39 | 2.4 | > 10 |  | selectivity over 5-HT1AR [4]: > 11 fold; Ki ([4]; Table 1, the head of this column prints no unit, nM, read-out: K i (5-HT7R)): 55 nM; function at the human 5-HT7 receptor [6]: full agonists; EC50 [6]: 0.15 µM; melting point: 236 °C |
| CCn1cncc1-c1cn(C)c2ccccc12 [1c] | > 10 | > 10 | 7.76 | > 10 |  | Ki ([4]; read-out: Ki 5-HT7): 5620 nM |
| CCn1cncc1-c1cn(C)c2ccc(OC)cc12 [1d] | 5.01 | > 10 | 5.5 | > 10 |  | Ki ([4]; read-out: Ki 5-HT7): > 10000 nM |
| CCCn1cncc1-c1c[nH]c2ccc(OC)cc12 [1f] | > 10 | 4.27 | > 10 | > 10 | 64.6 |  |
| CCCCn1cncc1-c1c[nH]c2ccc(OC)cc12 [1g] | 0.661 | 6.17 | 5.89 | > 10 | 324 |  |
| COc1ccc2[nH]cc(-c3cncn3C3CC3)c2c1 [1h] | 1.29 | > 10 | 5.25 | > 10 | 3310 | binding to 5-HT7R in words [4]: non-active |
| C=CCn1cncc1-c1c[nH]c2ccc(OC)cc12 [1i] | 0.537 | > 10 | 5.75 | > 10 | 135 |  |
| CCn1cncc1-c1c[nH]c2cc(Br)ccc12 [1j] | > 10 | > 10 | 6.92 | > 10 | > 10000 | binding to 5-HT7R in words [4]: low affinity |
| CCn1cncc1-c1c[nH]c2cccc(Br)c12 [1k] | > 10 | > 10 | 8.71 | > 10 | 2290 | binding to 5-HT7R in words [4]: low affinity |
| CCn1cncc1-c1c[nH]c2ccc(F)cc12 [1l] |  |  |  |  |  | Ki ([4]; read-out: Ki 5-HT7): 302 nM |
| CCn1cncc1-c1c[nH]c2ccc(Cl)cc12 [1m] |  |  |  |  |  | Ki ([4]; read-out: K i (5-HT7R)): 42 nM; function at the human 5-HT7 receptor [6]: full agonists; EC50 [6]: 0.149 µM |
| CCn1cncc1-c1c[nH]c2ccc(Br)cc12 [1n] |  |  |  |  |  | Ki ([4]; read-out: K i (5-HT7R)): 20 nM; function at the human 5-HT7 receptor [6]: full agonists; EC50 [6]: 0.154 µM |
| CCn1cncc1-c1c[nH]c2ccc(C#N)cc12 [1p] | > 10 | > 10 | > 10 | > 10 | 2510 |  |
| CCn1cncc1-c1c[nH]c2ccc(C)cc12 [1q] |  |  |  |  |  | Ki ([4]; read-out: K i (5-HT7R)): 44 nM; function at the human 5-HT7 receptor [6]: full agonists; EC50 [6]: 0.045 µM |

| SMILES | Ki [1, 7] [µM] | Ki [2, 8] [µM] | Ki [3, 9] [µM] | Ki [5, 10] [µM] | Ki [4, 11] [nM] | further results |
| --- | --- | --- | --- | --- | --- | --- |
| CCn1cncc1-c1c(C)[nH]c2ccc(OC)cc12 [1v] | > 10 | > 10 | > 10 | > 10 | > 10000 |  |
| COc1ccc2[nH]cc(-c3cnc[nH]3)c2c1 [1x] | 6.76 | 7.94 | 4.07 | 6.17 | 1200 |  |
| CCn1cncc1-c1c[nH]c2ccc(OCc3ccccc3)cc12 [1y] | > 10 | > 10 |  | 4.47 | 3720 |  |
| CCn1cncc1-c1c[nH]c2ccc(C(N)=O)cc12 [1za, 3-(1-Ethyl-1H-imidazol-5-yl)-1H-indole-5-carboxamide] |  |  |  |  |  | Ki ([4]; read-out: Ki 5-HT7): 5 nM |
| COc1ccc(-c2c([N+](=O)[O-])ncn2C)cc1 [2a] | > 10 | > 10 | > 10 | > 10 | > 10000 | binding to 5-HT1AR in words [1]: did not bind; binding to 5-HT7R in words [4]: did not bind; melting point: 171 °C |
| COc1ccc(-c2cncn2C)cc1 [2b] | > 10 | > 10 | 5.37 | > 10 | > 10000 | binding to 5-HT7R in words [4]: completely inactive |
| COc1cccc(-c2cncn2C)c1 [2c] | > 10 | > 10 | 8.91 | > 10 | > 10000 |  |
| COc1ccccc1-c1cncn1C [2d] | > 10 | > 10 | > 10 | > 10 | 2450 |  |
| Cn1cncc1-c1ccccc1 [2e] | > 10 | > 10 | > 10 | > 10 | > 10000 |  |
| COc1cc(-c2cncn2C)c(OC)cc1I [2f] | > 10 | > 10 | 5.37 | 6.92 | > 10000 |  |
| CCn1cncc1-c1cc2ccccc2[nH]1 [3b] | > 10 | > 10 | > 10 | > 10 | > 10000 |  |
| CCn1cncc1-c1ccc2[nH]ccc2c1 [3c] | > 10 | > 10 | 3.55 | > 10 | 5250 |  |
| CCn1cncc1-c1ccc2cc[nH]c2c1 [3d] | > 10 | > 10 | 4.57 | > 10 | 2630 |  |
| NCCc1c[nH]c2ccc(Cl)cc12 [5-chlorotryptamine, reference compound] |  |  |  |  |  | Ki [1]: 0.016 µM; Ki [2]: 0.317 µM; Ki [3]: 0.038 µM; Ki [4]: 16 nM; Ki [5]: 2.44 µM |
| COc1ccc2[nH]cc(CCN)c2c1 [5-methoxytryptamine, reference compound] |  |  |  |  |  | Ki [5]: > 10 µM |
| Cc1ccc2[nH]cc(CCN)c2c1 [5-methyltryptamine, reference compound] |  |  |  |  |  | Ki [1]: 0.039 µM; Ki [2]: 2.28 µM; Ki [3]: 0.327 µM; Ki [4]: 26 nM; Ki [5]: > 10 µM |
